This note sets out measurements from PMC11653243, “Enhancing Phototoxicity in BODIPY‐Perylene Charge Transfer Dyads by Combined Iodination and Mesylation” (Chemistry (Weinheim an Der Bergstrasse, Germany), 2024).

The test system of test [1] is CHO cells. The test can be described thus: Dark toxicity, 24 h, alamar blue assay. The class given is cell-based, Chinese Hamster. As to conditions: Cricetulus griseus, light or radiation study, without irradiation, 24 h in the dark at 37 °C. Here is the method:
(§1) Typical of many BODIPY derivatives, the BODIPY's presented in this work are insoluble in aqueous media, including PBS, and thus the main stock solutions (2–3 mM) were prepared in 100 % DMSO and diluted in media immediately before treating the cells. The maximum concentration for dark toxicity was set at 50 μM to keep the concentration of DMSO ≤1 % (v/v) to maintain cell health. As a result, it was not possible to determine an exact dark IC50 value as concentrations above 50 μM demanded DMSO concentrations that would affect the viability of the cells. Dietzek‐Ivanšić et al previously reported on the effect of DMSO on MCF‐7 cell viability, where cell viability remained high (95 %) in cells treated with 1 % DMSO in cell culture media for 24 h, whereas only 40 % of cells remained viable after treatment with 3.8 % DMSO. Working stocks in cell culture media remained stable within the incubation times used for cellular studies i. e. up to 24 h.[25]
(§2) Dark‐ and photo‐toxicity studies were performed by seeding CHO and MCF‐7 cells in clear 96‐well plates (Nunc) and treating with varying concentrations of B2P, MB2P, B2PI and MB2PI. Phototoxicity experiments were carried out using a 470 nm LED. For hypoxic phototoxicity studies, hypoxia was mimicked by adding CoCl2 to the cells prior to irradiation. Cell viability was determined using the alamar blue assay and absorbance measured with a BMG LABTECH CLARIOstar plate reader. […]
(§3) For 24 h dark toxicity studies, 50, 10, 5 and 1 µM stock concentrations of B2P, B2PI, MB2P and MB2PI were prepared in media to a final DMSO concentration of ≤1%. 100 µL of each concentration was added to the wells in triplicate and the plates incubated for 24 h in the dark at 37°C. Cell viability of all plate-based studies was assessed using the alamar blue assay. A 10% Resazurin-media solution (alamarBlue, Invitrogen) was added to the wells and incubated for 5 h in the absence of light. Absorbance was measured using a BMG LABTECH CLARIOstar plate reader at 570 nm and 600 nm (corrected for background subtraction). Cell viability is presented as a percentage (%) compared to untreated control wells. Plates were performed in triplicate. […]
On the technique in general: The colour change of resazurin is a common sign of viable cells or microbes.

The subject of test [2] is MCF‐7 cells. Kind of test: Dark toxicity, 24 h, alamar blue assay. The class given is cell-based. The following applies: Homo sapiens, MCF7, light or radiation study, without irradiation, 24 h in the dark at 37 °C. The protocol:
as §1, §2, §3

Test [3] has as its system CHO cells. The test can be described thus: Phototoxicity, 470 nm LED, alamar blue assay. The class given is cell-based, Chinese Hamster. As to conditions: 17 J/cm^2, 470 nm LED. Here is the method: (§4) The phototoxicity of the BODIPY's were assessed to compare the light induced toxicity of the iodinated compounds with their non‐iodinated counterparts. CHO and MCF‐7 cells were treated with B2P, B2PI, MB2P, and MB2PI in a concentration range from 0.10–1 μM for 17 h, the wells were decanted and filled with 100 μL phenol red free media prior to irradiation with a 470 nm LED (17 J/cm^2). Cell viability was determined using the alamar blue cell viability assay and % viability was calculated relative to untreated control wells.
as §2
(§5) For 24 h dark toxicity studies, 50, 10, 5 and 1 µM stock concentrations of B2P, B2PI, MB2P and MB2PI were prepared in media to a final DMSO concentration of ≤1%. 100 µL of each concentration was added to the wells in triplicate and the plates incubated for 24 h in the dark at 37°C. Cell viability of all plate-based studies was assessed using the alamar blue assay. A 10% Resazurin-media solution (alamarBlue, Invitrogen) was added to the wells and incubated for 5 h in the absence of light. Absorbance was measured using a BMG LABTECH CLARIOstar plate reader at 570 nm and 600 nm (corrected for background subtraction). Cell viability is presented as a percentage (%) compared to untreated control wells. Plates were performed in triplicate.
(§6) Phototoxicity and dark control plates were performed by incubating CHO or MCF-7 cells with B2P, B2PI, MB2P and MB2PI for 17 h to allow uptake, emptying the wells, replacing with phenol red free media, and irradiating at a total dose of 17 ± 1.64 J/cm2 (2 h at 2.37 ± 0.23 mW/cm2) using a 470 nm LED (TeleOpto LEDA-X LED driver and array). Control plates were incubated in the dark during the irradiation period (2 h). After irradiation, the cells were incubated in the dark overnight to allow for cell recovery. Irradiation conditions were tested on untreated cells to confirm cells remained viable at this dose before any experiments were performed and each phototoxicity plate included untreated test wells for cell viability comparison. Viability was determined using the alamar blue assay as per the cytotoxicity

Test [4] has as its system MCF‐7 cells. Kind of test: Phototoxicity, 470 nm LED, alamar blue assay. It counts as cell-based. The following applies: for Photo Index (PI), ratio of dark IC50 to light IC50: 17 J/cm^2, 470 nm LED; for IC50: Homo sapiens, MCF7, light or radiation study, 17 h incubation, 470 nm LED, 17±1.64 J/cm^2 (2.5 mW/cm^2 for 2 h). The protocol:
as §4, §2, §5, §6

Each structure is given as a SMILES string. A value given as a limit tells only on which side of the number the result lay.

Broadly, the IC50 is the concentration at which inhibition is half-maximal. A higher IC50 goes with a need for much substance. As for `CC1=C(I)C(C)=[N+]2C1=C(c1ccccc1)c1c(C)c(-c3ccc4c5cccc6cccc(c7cccc3c74)c65)c(C)n1[B-]2(F)F` [B2PI], the IC50 with CHO cells [1] and in the test with MCF‐7 cells [2] was greater than 50 µM in each case. The “Photo Index (PI), ratio of dark IC50 to light IC50” value (shortened to “Photo Index (PI), ratio”) in the test with CHO cells [3] is reported as greater than 87; with MCF‐7 cells [4] it was greater than 213.

Take `CC1=CC(C)=[N+]2C1=C(c1ccccc1)c1c(C)c(-c3ccc4c5cccc6cccc(c7cccc3c74)c65)c(C)n1[B-]2(F)F` [B2P]: the IC50 was greater than 50 µM in the test with CHO cells [1], greater than 50 µM with MCF‐7 cells [2] and 0.274 µM in the test with MCF‐7 cells [4]. The “Photo Index (PI), ratio” value in the test on CHO cells [3] is given as greater than 76; with MCF‐7 cells [4], greater than 182.

Consider `CC1=C(c2ccc3c4cccc5cccc(c6cccc2c63)c54)C(C)=[N+]2C1=C(c1c(C)cc(C)cc1C)c1c(C)c(I)c(C)n1[B-]2(F)F` [MB2PI], for which the IC50 is greater than 50 µM in the test with CHO cells [1], greater than 50 µM in the test on MCF‐7 cells [2] and 0.229 µM in the test on MCF‐7 cells [4]. In addition, the “Photo Index (PI), ratio” value in the test on CHO cells [3] is recorded as greater than 132; in the test on MCF‐7 cells [4], greater than 218.

For the compound `CC1=C(c2ccc3c4cccc5cccc(c6cccc2c63)c54)C(C)=[N+]2C1=C(c1c(C)cc(C)cc1C)c1c(C)cc(C)n1[B-]2(F)F` [MB2P], the figures for the IC50 in the test with CHO cells [1], in the test with MCF‐7 cells [2] and in the test with MCF‐7 cells [4] were greater than 50 µM, greater than 50 µM and 0.457 µM, respectively. The “Photo Index (PI), ratio” value was greater than 64 in the test on CHO cells [3] and greater than 109 in the test with MCF‐7 cells [4].
